Patent US20160113921A1, “COMBINATION THERAPY COMPRISING OXAZOLIDINONE-QUINOLONES FOR USE IN TREATING BACTERIAL INFECTIONS” (MORPHOCHEM AKTIENGESELLSCHAFT FÜR KOMBINATORISCHE CHEMIE, priority 2013, published 2016)
Converted amounts (≈) assume the structure as drawn. Read-outs that look alike come from different tables or passages of the source. Blank lines part the entries; values can stand above or below the compound they belong to.

How the values were obtained:
Type in all cases: cell-based
E. cloacae ATCC 13047 = assay: MIC, broth microdilution (CLSI), CAMHB; conditions: Enterobacter cloacae
Protocol: (§1) MIC-testing was done immediately after preparation of the dilutions. All tests were done in duplicate and repeated once on a separate occasion.
(§2) 1 mL of the bacterial suspension was transferred into a tube containing 10 mL CAMHB and was vortexed thoroughly. (S. pneumoniae 1 mL in 10 mL CAMHB+5% lysed horse blood). Columns 1-15 of the 96-well plate were inoculated with 5 μL of this suspension (1-15=antibacterial solution, 16=sterile medium without test item).
(§3) Turbidity was read visually with a mirror.

[1] = tested on: E. cloacae NRZ-00239 (VIM-1); assay: MIC, broth microdilution (CLSI), CAMHB; conditions: Enterobacter cloacae
Protocol: as §1, §2, §3

E. coli ATCC 25922 = assay: MIC, broth microdilution (CLSI), CAMHB; conditions: Escherichia coli
Protocol: as §1, §2, §3

[2] = tested on: E. coli GNS-2601 (ESBL CTX-M-15); assay: MIC, broth microdilution (CLSI), CAMHB; conditions: Escherichia coli
Protocol: as §1, §2, §3

[3] = tested on: E. coli NRZ-00302 (metallo β-lactamase NDM-1); assay: MIC, broth microdilution (CLSI), CAMHB; conditions: Escherichia coli
Protocol: as §1, §2, §3

[4] = tested on: E. coli NRZ-00401 (metallo β-lactamase VIM-1); assay: MIC, broth microdilution (CLSI), CAMHB; conditions: Escherichia coli
Protocol: as §1, §2, §3

K. pneumoniae ATCC 13883 = assay: MIC, broth microdilution (CLSI), CAMHB; conditions: Klebsiella pneumoniae
Protocol: as §1, §2, §3

[5] = tested on: K. pneumoniae NRZ-00002 (OXA-48); assay: MIC, broth microdilution (CLSI), CAMHB; conditions: Klebsiella pneumoniae
Protocol: as §1, §2, §3

[6] = tested on: K. pneumoniae NRZ-00103 (KPC-2); assay: MIC, broth microdilution (CLSI), CAMHB; conditions: Klebsiella pneumoniae
Protocol: as §1, §2, §3

[7] = tested on: K. pneumoniae NRZ-00535 (VIM-1); assay: MIC, broth microdilution (CLSI), CAMHB; conditions: Klebsiella pneumoniae
Protocol: as §1, §2, §3

P. aeruginosa ATCC 10145 = assay: MIC, broth microdilution (CLSI), CAMHB; conditions: Pseudomonas aeruginosa
Protocol: as §1, §2, §3

[8] = tested on: P. aeruginosa NRZ-00425 (VIM-1); assay: MIC, broth microdilution (CLSI), CAMHB; conditions: Pseudomonas aeruginosa
Protocol: as §1, §2, §3

P. mirabilis ATCC 9240 = assay: MIC, broth microdilution (CLSI), CAMHB; conditions: Proteus mirabilis
Protocol: as §1, §2, §3

[9] = tested on: P. mirabilis NRZ-00185 (AmpC, type CMY-2); assay: MIC, broth microdilution (CLSI), CAMHB; conditions: Proteus mirabilis
Protocol: as §1, §2, §3

[10] = tested on: Gram-negative test strains (Enterobacteriaceae, non-fermenters); assay: MIC testing, statements on the Gram-negative strain panel
From the text: as §1

E. faecalis ATCC 29212 = assay: MIC, broth microdilution (CLSI), CAMHB; conditions: Enterococcus faecalis
Protocol: as §1, §2, §3

E. faecalis V583 (VanB) = assay: MIC, broth microdilution (CLSI), CAMHB; conditions: Enterococcus faecalis
Protocol: as §1, §2, §3

E. faecium DSMZ 2146 = assay: MIC, broth microdilution (CLSI), CAMHB; conditions: Enterococcus faecium, DSMZ2146
Protocol: as §1, §2, §3

[11] = tested on: E. faecium UW 3695 (linezolid and quinolone-resistant); assay: MIC, broth microdilution (CLSI), CAMHB; conditions: Enterococcus faecium
Protocol: as §1, §2, §3

S. aureus ATCC 29213 = assay: MIC, broth microdilution (CLSI), CAMHB; conditions: Staphylococcus aureus
Protocol: as §1, §2, §3

[12] = tested on: S. aureus ATCC 33593 (MRSA); assay: MIC, broth microdilution (CLSI), CAMHB; conditions: Staphylococcus aureus
Protocol: as §1, §2, §3

[13] = tested on: S. aureus NRS-119 (MRSA, linezolid- and quinolone-resistant); assay: MIC, broth microdilution (CLSI), CAMHB; conditions: Staphylococcus aureus
Protocol: as §1, §2, §3

[14] = tested on: S. aureus Visa Mu 50 (MRSA, vancomycin intermediate susceptible); assay: MIC, broth microdilution (CLSI), CAMHB; conditions: Staphylococcus aureus
Protocol: as §1, §2, §3

S. pneumoniae ATCC 33400 = assay: MIC, broth microdilution (CLSI), CAMHB; conditions: Streptococcus pneumoniae
Protocol: as §1, §2, §3

[15] = tested on: S. pneumoniae BAY 19397 (penicillin-, macrolide-, quinolone-resistant); assay: MIC, broth microdilution (CLSI), CAMHB; conditions: Streptococcus pneumoniae
Protocol: as §1, §2, §3

[16] = tested on: S. aureus DSM 11823, clone 16 (MSSA, quinolone-resistant); assay: microbe, parasite or virus in culture; conditions: Staphylococcus aureus
Protocol: as §1, §2, §3

[17] = tested on: Gram-positive strains tested; assay: MIC testing, statements on the Gram-positive strain panel; conditions: read-out: MIC (inhibitory concentration)
From the text: as §1

[18] = monosubstance, Ecl ATCC13047, read-out: MIC
[19] = monosubstance, Ecl NRZ00239, read-out: MIC
[20] = monosubstance, Ec ATCC25922, read-out: MIC
[21] = monosubstance, Ec GNS2601, read-out: MIC
[22] = monosubstance, Ec NRZ00302, read-out: MIC
[23] = monosubstance, Ec NRZ00401, read-out: MIC
[24] = monosubstance, Kp ATCC13883, read-out: MIC
[25] = monosubstance, Kp NRZ00002, read-out: MIC
[26] = monosubstance, Kp NRZ00103, read-out: MIC
[27] = monosubstance, Kp NRZ00535, read-out: MIC
[28] = monosubstance, Pa ATCC10145, read-out: MIC
[29] = monosubstance, Pm ATCC9240, read-out: MIC
[30] = monosubstance, Pm NRZ00185, read-out: MIC

- MIC (E. cloacae ATCC 13047; [18]): 0.25 µg/mL (≈ 0.535 µM)
- MIC [1, 19]: 4 µg/mL (≈ 8.56 µM)
- MIC (E. coli ATCC 25922; [20]): 1 µg/mL (≈ 2.14 µM)
- MIC [2, 21]: 32 µg/mL (≈ 68.4 µM)
- MIC [3, 22]: 64 µg/mL (≈ 137 µM)
- MIC [4, 23]: 4 µg/mL (≈ 8.56 µM)
- MIC (K. pneumoniae ATCC 13883; [24]): 0.125 µg/mL (≈ 0.267 µM)
- MIC [5, 25]: 16 µg/mL (≈ 34.2 µM)
- MIC [6, 26]: 16 µg/mL (≈ 34.2 µM)
- MIC [7, 27]: 8 µg/mL (≈ 17.1 µM)
- MIC (P. aeruginosa ATCC 10145; [28]): 0.5 µg/mL (≈ 1.07 µM)
- MIC ([8]; monosubstance, Pa NRZ00425, read-out: MIC): > 128 µg/mL
- MIC (P. mirabilis ATCC 9240; [29]): 0.5 µg/mL (≈ 1.07 µM)
- MIC [9, 30]: 0.125 µg/mL (≈ 0.267 µM)
- MIC ([10]; remainder / remaining / all other test strains, as worded for each agent, read-out: MIC): > 4 µg/mL
Structure (SMILES): NC[C@H]1O[C@H](O[C@H]2[C@H](O)[C@@H](O[C@H]3O[C@H](CO)[C@@H](O)[C@H](N)[C@H]3O)[C@H](N)C[C@@H]2N)[C@H](N)C[C@@H]1O [tobramycin]

Structure (SMILES): CN(C)c1cc(NC(=O)CNC(C)(C)C)c(O)c2c1C[C@H]1C[C@H]3[C@H](N(C)C)C(O)=C(C(N)=O)C(=O)[C@@]3(O)C(O)=C1C2=O [tigecycline]
- MIC (E. cloacae ATCC 13047; ATCC13047): 2 µg/mL (≈ 3.41 µM)
- MIC [1]: 2 µg/mL (≈ 3.41 µM)
- MIC (E. coli ATCC 25922; ATCC25922): 0.5 µg/mL (≈ 0.854 µM)
- MIC [2]: 4 µg/mL (≈ 6.83 µM)
- MIC [3]: 2 µg/mL (≈ 3.41 µM)
- MIC [4]: 2 µg/mL (≈ 3.41 µM)
- MIC (E. faecalis ATCC 29212; ATCC29212): 0.25 µg/mL (≈ 0.427 µM)
- MIC (E. faecalis V583 (VanB)): 0.25 µg/mL (≈ 0.427 µM)
- MIC (E. faecium DSMZ 2146): 0.25 µg/mL (≈ 0.427 µM)
- MIC [11]: 0.25 µg/mL (≈ 0.427 µM)
- MIC (K. pneumoniae ATCC 13883; ATCC13883): 2 µg/mL (≈ 3.41 µM)
- MIC [5]: 2 µg/mL (≈ 3.41 µM)
- MIC [6]: 4 µg/mL (≈ 6.83 µM)
- MIC [7]: 2 µg/mL (≈ 3.41 µM)
- MIC (P. aeruginosa ATCC 10145; ATCC10145): 16 µg/mL (≈ 27.3 µM)
- MIC [8]: 32 µg/mL (≈ 54.6 µM)
- MIC (P. mirabilis ATCC 9240; ATCC9240): 8 µg/mL (≈ 13.7 µM)
- MIC [9]: 8 µg/mL (≈ 13.7 µM)
- MIC (S. aureus ATCC 29213; ATCC29213): 0.25 µg/mL (≈ 0.427 µM)
- MIC [12]: 0.25 µg/mL (≈ 0.427 µM)
- MIC [13]: 0.25 µg/mL (≈ 0.427 µM)
- MIC [14]: 0.5 µg/mL (≈ 0.854 µM)
- MIC (S. pneumoniae ATCC 33400; ATCC33400): 7.5 ng/mL (≈ 0.0128 µM)
- MIC [15]: 0.0075 µg/mL (≈ 0.0128 µM)
- MIC [16]: 0.125 µg/mL (≈ 0.213 µM)
- MIC [10]: > 2 µg/mL
- MIC [17]: < 0.5 µg/mL

Structure (SMILES): CC1(C)S[C@@H]2[C@H](NC(=O)[C@H](N)c3ccccc3)C(=O)N2[C@H]1C(=O)O [ampicillin]
- MIC (E. faecalis ATCC 29212; monosubstance, Ef ATCC29212, read-out: MIC): 1 µg/mL (≈ 2.86 µM)
- MIC (E. faecalis V583 (VanB); monosubstance, Ef V583, read-out: MIC): 0.5 µg/mL (≈ 1.43 µM)
- MIC (E. faecium DSMZ 2146): 128 µg/mL (≈ 366 µM)
- MIC ([11]; monosubstance, Efc UW3695, read-out: MIC): 32 µg/mL (≈ 91.6 µM)
- MIC (S. aureus ATCC 29213; monosubstance, Sa ATCC29213, read-out: MIC): 0.5 µg/mL (≈ 1.43 µM)
- MIC ([12]; monosubstance, Sa ATCC33593, read-out: MIC): 64 µg/mL (≈ 183 µM)
- MIC [13]: 128 µg/mL (≈ 366 µM)
- MIC ([14]; monosubstance, Sa VisaMu50, read-out: MIC): 256 µg/mL (≈ 733 µM)
- MIC (S. pneumoniae ATCC 33400; monosubstance, Spn ATCC33400, read-out: MIC): 7.5 ng/mL (≈ 0.0215 µM)
- MIC ([15]; monosubstance, Spn 19397, read-out: MIC): 1 µg/mL (≈ 2.86 µM)
- MIC [16]: 0.007 µg/mL (≈ 0.02 µM)

Structure (SMILES): C[C@@H](O)[C@H]1C(=O)N2C(C(=O)O)=C(SCCN=CN)C[C@H]12 [imipenem]
- MIC (E. cloacae ATCC 13047; [18]): 0.25 µg/mL (≈ 0.835 µM)
- MIC [1, 19]: 0.25 µg/mL (≈ 0.835 µM)
- MIC (E. coli ATCC 25922; [20]): 0.03 µg/mL (≈ 0.1 µM)
- MIC [2, 21]: 0.03 µg/mL (≈ 0.1 µM)
- MIC [3, 22]: 4 µg/mL (≈ 13.4 µM)
- MIC [4, 23]: 4 µg/mL (≈ 13.4 µM)
- MIC (K. pneumoniae ATCC 13883; [24]): 0.25 µg/mL (≈ 0.835 µM)
- MIC [5, 25]: 2 µg/mL (≈ 6.68 µM)
- MIC [6, 26]: 32 µg/mL (≈ 107 µM)
- MIC [7, 27]: 8 µg/mL (≈ 26.7 µM)
- MIC (P. aeruginosa ATCC 10145; [28]): 0.5 µg/mL (≈ 1.67 µM)
- MIC [8]: 128 µg/mL (≈ 428 µM)
- MIC (P. mirabilis ATCC 9240; [29]): 1 µg/mL (≈ 3.34 µM)
- MIC [9, 30]: 1 µg/mL (≈ 3.34 µM)
- MIC ([10]; all the test strains except P. aeruginosa NRZ-00185 and K. pneumoniae NRZ-00103, read-out: MIC (inhibitory concentration)): < 8 µg/mL
